One data set has as its system mice of Std-ddY strain. Put plainly: Assay on defecation in mice. The format is in vivo. Conditions: fecal pellet weight vs control, Dunnett's test. Details: key: −: Inactive; +: Moderately stimulated (P < 0.05); ++: Markedly stimulated (p < 0.01). The method, then:
Male mice of Std-ddY strain weighing 25-30 g were used. Free access to food and water was allowed up to the beginning of the procedure. The mice (each group: five mice) were placed in a mesh bottom cage for fasting, and they were allowed for acclimation to the new environment for about one hour prior to the start of the experiment. A test compound, which was previously suspended in a 0.5% tragacanth solution, was administered orally to the mice. The fecal pellets were collected at 30, 60 and 120 minutes after the treatment of a test compound, and weighed. The statistical judgment of efficacy was carried out between the control group (treated with a 0.5% tragacanth solution) and the test compound-treated group, and determined by Dunnett's test.

For data set [1], the system named is guinea pigs of Std-Hartley strain. Kind of data set: Effect on electrocardiogram in guinea pigs (QTc). The format is in vivo, guinea pig. Conditions: anesthetized guinea pigs, iv infusion for 15 minutes, maximum dose 30 mg/kg. The protocol:
Male guinea pigs of Std-Hartley strain weighing 350-500 g were anesthetized with urethan (1.5 g/kg, ip). […] RR (second): time from the peak of R-wave to the peak of the next R-wave in electrocardiogram (usually, expressed by “second”). […] Consequently, as an index for evaluating the effects on the heart, a dose to be required to prolong the QTc intervals by 5% of the electrocardiogram (ED5%) in guinea pigs was measured, which has widely been used.

Another data set has as its target T1, Dopamine D2 receptor (Rattus norvegicus, UniProt P61169).
T1 construct: Crude synaptosome membrane fractions from rat brain was used as a receptor membrane fraction; from tissue; host or cells: rat brain crude synaptosome membrane fraction
Put plainly: Dopamine D2 receptor binding assay ([3H]spiperone). Particulars: rat brain crude synaptosome membrane fractions. The protocol:
Dopamine D2 receptor binding assay and the preparation of receptor membrane fractions therefor were carried out according to a modified method of the method of Creese, I. et al., Eur. J. Pharmacol., 46, 337 (1977) and Peroutka, S. J. and Hamik, A., Eur. J. Pharmacol., 148, 297 (1988).
Crude synaptosome membrane fractions from rat brain was used as a receptor membrane fraction, and [^3H]spiperone (D2) was used as a labeled ligand. A buffer (final volume: 1 ml) containing a receptor membrane fraction and a labelled ligand therefor was incubated for a prescribed period in the presence of a test compound in various concentrations, and the radioactive ligand binding to the receptor was separated on the filter paper using a cell harvester (manufactured by Brandel). The radioactivity on the filter was determined by a liquid scintillation counter, and the total binding of the ligand to the receptor was determined. On the other hand, the non-specific binding was determined in the presence of an excess amount of non-labeled ligand (spiperone (D2)), and the specific binding was obtained by subtracting the non-specific binding from the total binding.

The nature of the next data set: Acute toxicity. Conditions: male, Std-ddY, mouse, in vivo; mice, intravenous, observed for 7 days. An excerpt:
Male mice of Std-ddY strain weighing 25-30 g were used in a group of 5 or more animals. A test compound was suspended in physiological saline solution or a 1% lactose solution and administered intravenously to the mice.

In data set [2] the target is T2, Serotonin 4 (5-HT4) receptor (Cavia porcellus, UniProt O70528).
T2 construct: from tissue; host or cells: guinea pig (Std-Hartley) brain striatum membrane fraction
T2 sequence (O70528 whole entry): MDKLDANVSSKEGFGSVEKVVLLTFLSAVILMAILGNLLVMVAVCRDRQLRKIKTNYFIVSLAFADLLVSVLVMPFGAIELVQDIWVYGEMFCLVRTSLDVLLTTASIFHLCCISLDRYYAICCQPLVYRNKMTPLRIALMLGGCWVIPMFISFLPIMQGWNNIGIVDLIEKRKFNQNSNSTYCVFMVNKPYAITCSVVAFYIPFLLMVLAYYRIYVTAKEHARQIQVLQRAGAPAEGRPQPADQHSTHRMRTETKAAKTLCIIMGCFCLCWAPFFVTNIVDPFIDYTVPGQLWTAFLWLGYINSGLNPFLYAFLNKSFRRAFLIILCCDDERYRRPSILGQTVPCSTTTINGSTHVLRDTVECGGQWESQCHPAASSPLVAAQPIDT
Put plainly: Serotonin 4 (5-HT4) receptor binding assay ([3H]-GR113808). Conditions: guinea pig striatum membrane fractions, 0.1 nM [3H]-GR113808. An excerpt: Std-Hartley guinea pigs weighing 300-400 g were decapitated, and the brain thereof was immediately taken out, and the striatum was dissected.
Prior to the filtration, the filter to be used was presoaked in a 0.1% solution of polyethylenimine for one hour.

The test system of another data set is colon of Beagle dogs. Kind of data set: Gastrointestinal motility activity in conscious dog. The format is in vivo. Particulars: within 2 hours after administration. An excerpt:
Beagle dogs of a male were anesthetized with pentobarbital, and the abdominal cavity was opened, and force transducers (F-121S; manufactured by Star Medical Inc.) were sutured onto the seromuscular layer of the colon to make it possible to measure circular muscle contractions. Three or four force transducer were sutured onto in the colon from the lower part to the upper part at regular intervals. The lead wires from the transducers were brought out outside the body through a skin incision made between the scapulae, and were protected in a package of a jacket protector. The gastrointestinal motility activity was measured 2 or 3 weeks after the operation. The lead wires from the force transducers were connected with a telemeter system (DAS-800T: manufactured by Star Medical Inc.), and the gastrointestinal motility activity was analyzed by a personal computer system being connected therewith and recorded. A test compound was suspended in a 0.5% tragacanth solution, and administered via a cannula to be placed in the stomach to the dogs, which were one hour or more after feeding. The measurement was continued for 2 hours after the administration of test compounds.
The number of dogs showing Giant Migrating Contraction (GMC) and defecation within 2 hours after the administration of a test compound is indicated in Table 4.

Structures can show the parent of a compound that is named as a salt.

T1 sequence (P61169 whole entry): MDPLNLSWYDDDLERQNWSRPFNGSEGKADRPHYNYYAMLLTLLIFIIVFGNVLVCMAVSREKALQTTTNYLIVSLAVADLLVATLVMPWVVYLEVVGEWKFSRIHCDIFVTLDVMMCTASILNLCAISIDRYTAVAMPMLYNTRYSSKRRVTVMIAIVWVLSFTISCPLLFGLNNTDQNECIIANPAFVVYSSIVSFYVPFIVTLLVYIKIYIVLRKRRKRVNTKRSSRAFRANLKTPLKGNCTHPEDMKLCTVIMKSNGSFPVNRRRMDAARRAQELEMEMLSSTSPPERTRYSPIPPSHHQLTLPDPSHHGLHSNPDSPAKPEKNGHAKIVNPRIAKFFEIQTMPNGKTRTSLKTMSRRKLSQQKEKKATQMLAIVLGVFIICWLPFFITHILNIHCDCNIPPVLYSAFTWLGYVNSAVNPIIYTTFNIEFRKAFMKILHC

As to `COc1cc(N)c(Cl)cc1C(=O)NC1CCN(CC2CCN(C(=O)C3CCOCC3)CC2)CC1` [Compound A, 4-amino-5-chloro-2-methoxy-N-[1-[1-(4-tetrahydropyranylcarbonyl)-4-piperidinylmethyl]-4-piperidinyl]benzamide.fumarate.1/4 hydrate], the “Effect (defecation in mice)” value is reported as “−” with mice of Std-ddY strain (1.0 mg/kg oral), “−” in the data set on mice of Std-ddY strain (3.0 mg/kg oral) and “++” in the data set with mice of Std-ddY strain (10 mg/kg oral). Moreover, the “ED5%, iv (dose required to prolong the QTc intervals by 5%)” value in data set [1] turned out to be 16.9 mg/kg.

On to `COc1cc(N)c(Cl)cc1C(=O)NC1CCN(CC2CCN(C(=O)C3CCOC3)CC2)CC1.O=C(O)/C=C/C(=O)O` (stereo not shown) [Compound C, 4-amino-5-chloro-2-methoxy-N-[1-[1-(3-tetrahydrofurylcarbonyl)-4-piperidinyl-methyl]-4-piperidinyl]benzamide.fumarate], for which the “Effect (defecation in mice)” value in the data set on mice of Std-ddY strain (1.0 mg/kg oral) was “+”; with mice of Std-ddY strain (3.0 mg/kg oral), “++”. Moreover, the “ED5%, iv (dose required to prolong the QTc intervals by 5%)” value in data set [1] was found to be 9.4 mg/kg.

Take `COc1cc(N)c(Cl)cc1C(=O)NC1CCN(CC2CCN(C(=O)c3ccco3)CC2)CC1` [Compound B, 4-amino-5-chloro-N-[1-[1-(2-furoyl)-4-piperidinyl-methyl]-4-piperidinyl]-2-methoxybenzamide.fumarate.1/2 hydrate]: the results for the “Effect (defecation in mice)” value with mice of Std-ddY strain (1.0 mg/kg oral), with mice of Std-ddY strain (3.0 mg/kg oral) and with mice of Std-ddY strain (10 mg/kg oral) were “+”, “+” and “++”, respectively. Also, in data set [1], the “ED5%, iv (dose required to prolong the QTc intervals by 5%)” value stood at 3.2 mg/kg.

Compound `COc1cc(N)c(Cl)cc1C(=O)NC1CCN(CC2CCN(C(=O)c3ccco3)CC2)CC1` (as salt: fumarate) (hydrate or solvate) [Compound B, 4-amino-5-chloro-N-[1-[1-(2-furoyl)-4-piperidinyl-methyl]-4-piperidinyl]-2-methoxybenzamide.fumarate.1/2 hydrate] gave a melting point of 179 to 181 °C.

On to `COc1cc(N)c(Cl)cc1C(=O)NC1CCN(CC2CCN(C(=O)[C@H]3CCCO3)CC2)CC1` [Compound R, (R)-4-amino-5-chloro-2-methoxy-N-[1-[1-(2-tetrahydrofurylcarbonyl)-4-piperidinyl-methyl]-4-piperidinyl]benzamide.fumarate], for which the “Effect (defecation in mice)” value in the data set on mice of Std-ddY strain (1.0 mg/kg oral) and in the data set on mice of Std-ddY strain (3.0 mg/kg oral) was “++” throughout. At Dopamine D2 receptor, this compound came in with an IC50 of 948 nM. In addition, the “ED5%, iv (dose required to prolong the QTc intervals by 5%)” value in data set [1] is listed as 17.4 mg/kg.

`COc1cc(N)c(Cl)cc1C(=O)NC1CCN(CC2CCN(C(=O)[C@@H]3CCCO3)CC2)CC1` [Compound 2, (S)-4-amino-5-chloro-2-methoxy-N-[1-[1-(2-tetrahydrofurylcarbonyl)-4-piperidinylmethyl]-4-piperidinyl]benzamide.fumarate] came in with an LD50 at 7 days in the data set “Acute toxicity” above 200 mg/kg. Further, the “Effect (defecation in mice)” value in the data set on mice of Std-ddY strain (1.0 mg/kg oral) and in the data set with mice of Std-ddY strain (3.0 mg/kg oral) was “++” in each case. Moreover, the IC50 was above 10000 nM at Dopamine D2 receptor and 13.5 nM in data set [2]. The results for the “Number of dogs which showed defecation/total number of dogs to be tested” value with colon of Beagle dogs (0.03 mg/kg intragastric), in the data set on colon of Beagle dogs (0.1 mg/kg intragastric) and with colon of Beagle dogs (0.3 mg/kg intragastric) were 1/4, 2/5 and 3/5, respectively. Also, the “Number to dogs which showed GMC/total number of dogs to be tested” value in the data set on colon of Beagle dogs (0.03 mg/kg intragastric) was 1/4; with colon of Beagle dogs (0.1 mg/kg intragastric), 3/5; with colon of Beagle dogs (0.3 mg/kg intragastric), 4/5. Besides, in data set [1], the “ED5%, iv (dose required to prolong the QTc intervals by 5%)” value stood at 24.9 mg/kg.

Consider `COc1cc(N)c(Cl)cc1C(=O)N[C@H]1CCN(CCCOc2ccc(F)cc2)C[C@H]1OC` (relative stereo) [Cisapride, cis-4-amino-5-chloro-N-[1-[3-(4-fluorophenoxy)propyl]-3-methoxy-4-piperidinyl]-2-methoxybenzamide], for which the “Effect (defecation in mice)” value with mice of Std-ddY strain (3.0 mg/kg oral) is listed as “−”. For the same compound, the “Effect (defecation in mice)” value in the data set with mice of Std-ddY strain (30 mg/kg oral) is recorded as “−”. Also, in the data set with colon of Beagle dogs (10 mg/kg intragastric), the “Number of dogs which showed defecation/total number of dogs to be tested” value is 1/7 and the “Number to dogs which showed GMC/total number of dogs to be tested” value is listed as 1/7. Moreover, the “ED5%, iv (dose required to prolong the QTc intervals by 5%)” value in data set [1] turned out to be 0.3 mg/kg.

Consider `COc1cc(N)c(Cl)cc1C(=O)NC1CCN(CC2CCN(C(=O)C3CCOCC3)CC2)CC1` (as salt: fumarate) (hydrate or solvate) [Compound A, 4-amino-5-chloro-2-methoxy-N-[1-[1-(4-tetrahydropyranylcarbonyl)-4-piperidinylmethyl]-4-piperidinyl]benzamide.fumarate.1/4 hydrate], for which the melting point was in the range of 235 to 237 °C.

These data come from patent US6696468B2, “(S)-4-AMINO-5-CHLORO-2-METHOXY-N-[1-[1-(2-TETRAHYDROFURYL-CARBONYL)-4-[…]]-4-[…]]BENZAMIDE, PROCESS FOR THE PREPARATION THEREOF, PHARMACEUTICAL COMPOSITION CONTAINING THE SAME, AND INTERMEDIATE THEREFOR” (priority 2002, dated 2004).
